From patent US20190134115A1, “Activated Lactobacillus Reuteri Strains for Selective Pathogen Inhibition in a Human Microbial Community” (BioGaia AB, priority 2016, published 2019)
Values after ≈ are worked out from the molar mass of the structure shown. Read-outs that look alike come from different tables or passages of the source.

How the values were obtained:
L. rhamnosus LR-34 = experiment: Antibiotic susceptibility testing, broth microdilution MIC; type: cell-based; details: for MIC: Lacticaseibacillus rhamnosus; for MIC / Minimum inhibitory concentration: MRS, anaerobic, 24 h, ≥90% reduction in growth
Experimental: (§1) Antibiotic Susceptibility Testing. Susceptibility of Lactobacillus spp. to antibiotics was determined using standard broth microdilution procedures (24). […] Plates were incubated anaerobically at 37° C. for 24 h. Optical density measurements (600 nm) were recorded using a Synergy™ H1 Hybrid Multi-Mode Microplate Reader (BioTek Instruments, Inc, Winooski, Vt.). […] Significance was determined using student's t test with equal variance.

L. casei LC-39 = experiment: as above; type: cell-based; details: for MIC: Lacticaseibacillus casei; for MIC / Minimum inhibitory concentration: MRS, anaerobic, 24 h, ≥90% reduction in growth
Experimental: as §1

L. gasseri LG-3 = experiment: as above; type: cell-based; details: for MIC: Lactobacillus gasseri, read-out: Minimum inhibitory concentration
Experimental: (§2) Antibiotic Susceptibility Testing. Susceptibility of Lactobacillus spp. to antibiotics was determined using standard broth microdilution procedures (24). […] Plates were incubated anaerobically at 37° C. for 24 h. Optical density measurements (600 nm) were recorded using a Synergy™ H1 Hybrid Multi-Mode Microplate Reader (BioTek Instruments, Inc, Winooski, Vt.). Results were compared to a growth control (lactobacilli only), and the minimum inhibitory concentration (MIC) endpoint was the concentration of antibiotic where ≥90% reduction in growth was observed. Significance was determined using student's t test with equal variance.

L. reuteri 17938 = experiment: as above; type: cell-based; details: read-out: Minimum inhibitory concentration
Experimental: as §2

L. reuteri 6475 = experiment: as above; type: cell-based; details: read-out: Minimum inhibitory concentration
Experimental: as §2

C. difficile R20291 = details: C. difficile R20291, CDI patient stool; cited from earlier work
[1] = system: C. difficile-associated diarrheal isolates; details: cited from earlier work
C. difficile CD2015 = experiment: C. difficile invasion of antibiotic-treated human fecal mini-bioreactor arrays (MBRA), qPCR; type: cell-based; details: clindamycin-treated MBRA, increase not statistically significant
Experimental: Mini-bioreactor array (MBRA) preparation, operation and sample collection. Effects of reuterin on C. difficile growth in a human fecal microbial community were tested in MBRAs. Replicate MBRAs (twelve independent 15-mL reactors) and bioreactor medium (BRM2) were prepared as previously described (26). Reactors were inoculated with an anaerobic preparation of a 25% fecal slurry from an anonymous healthy donor (5% w/v final concentration) and were operated in an anaerobic chamber with 5% H2, 5% CO2, 90% N2 atmosphere. After 16 h of outgrowth in batch culture mode, continuous-flow cultivation was initiated at a flow rate of 0.94 ml/h (16 h retention time). After 36 h of flow, reactor communities were treated twice daily with clindamycin (500 mg/L final concentration) for 4.5 days. Reactors were transitioned to fresh medium on day 4 of clindamycin treatment, with 6 reactors receiving standard BRM2 medium and 6 reactors receiving BRM2 supplemented with glycerol (10% v/v final concentration). […]
Samples (1 ml) were collected from each MBRA as described (27) prior to the initiation of continuous flow and then daily through the duration of the experiment. […] Microbial community and metabolite analysis, and quantification of C. difficile levels by quantitative PCR (qPCR) were performed as described below. […]
Quantification of C. difficile by qPCR. […]

[2] = LR34, L. rhamnosus LR-34, read-out: Minimum inhibitory concentration
[3] = LC39, L. casei LC-39, read-out: Minimum inhibitory concentration
[4] = LG3, L. gasseri LG-3, MRS, anaerobic, 24 h, ≥90% reduction in growth
[5] = Limosilactobacillus reuteri, L. reuteri 17938, MRS, anaerobic, 24 h, ≥90% reduction in growth
[6] = Limosilactobacillus reuteri, 6475, 24 h

Row | Compound | MIC relative to the MIC90 for C. difficile (L. rhamnosus LR-34; L. rhamnosus LR-34, fold greater) [fold] | MIC (L. rhamnosus LR-34; [2]) [µg/mL] | MIC relative to the MIC90 for C. difficile (L. casei LC-39; L. casei LC-39, fold greater) [fold] | MIC (L. casei LC-39; [3]) [µg/mL] | MIC (L. gasseri LG-3; [4]) [µg/mL] | MIC (L. reuteri 17938; [5]) [µg/mL] | MIC (L. reuteri 6475; Limosilactobacillus reuteri, L. reuteri 6475, MRS, anaerobic, 24 h, ≥90% reduction in growth) [µg/mL] | Minimum inhibitory concentration (C. difficile R20291) [µg/mL] | MIC90 [1] [µg/mL] | Minimum inhibitory concentration (L. rhamnosus LR-34; L. rhamnosus LR-34) [µg/mL] | Minimum inhibitory concentration (L. casei LC-39; L. casei LC-39) [µg/mL] | Minimum inhibitory concentration (L. gasseri LG-3; L. gasseri LG-3, MRS, anaerobic, 24 h, ≥90% reduction in growth) [µg/mL] | MIC (L. reuteri 6475; [6]) [µg/mL] | MIC (L. rhamnosus LR-34; LR34, 24 h, read-out: Minimum inhibitory concentration, L. rhamnosus LR-34) [µg/mL] | MIC (L. casei LC-39; LC39, 24 h, read-out: Minimum inhibitory concentration, L. casei LC-39) [µg/mL] | MIC (L. gasseri LG-3; LG3, 24 h) [µg/mL] | MIC (L. reuteri 17938; Limosilactobacillus reuteri, 17938, 24 h) [µg/mL] | C. difficile concentrations, fold greater than controls (C. difficile CD2015) [fold]
1 | CCc1c(Cl)c(O)c(Cl)c(O)c1C(=O)O[C@H]1[C@H](O)[C@H](OC)[C@H](OC/C2=C\C=C\C[C@H](O)/C(C)=C/[C@H](CC)[C@@H](O[C@@H]3OC(C)(C)[C@@H](OC(=O)C(C)C)[C@H](O)[C@@H]3O)/C(C)=C/C(C)=C/C[C@@H]([C@@H](C)O)OC2=O)O[C@@H]1C [Fidaxomycin, fidaxomicin] | 4 | 2 | 4 | 2 | 2 | > 32 | > 32 | 0.5 (≈ 0.473 µM) | 0.5 (≈ 0.473 µM) | – | – | – | – | – | – | – | – | –
2 | Cc1ncc([N+](=O)[O-])n1CCO [Metronidazole, metronidazole] | – | > 256 | – | > 256 | > 256 | > 256 | – | 2 (≈ 11.7 µM) | 2 (≈ 11.7 µM) | >256 | >256 | >256 | 128 | – | – | – | – | –
3 | CN[C@H](CC(C)C)C(=O)N[C@H]1C(=O)N[C@@H](CC(N)=O)C(=O)N[C@H]2C(=O)N[C@H]3C(=O)N[C@H](C(=O)N[C@H](C(=O)O)c4cc(O)cc(O)c4-c4cc3ccc4O)[C@H](O)c3ccc(c(Cl)c3)Oc3cc2cc(c3O[C@@H]2O[C@H](CO)[C@@H](O)[C@H](O)[C@H]2O[C@H]2C[C@](C)(N)[C@H](O)[C@H](C)O2)Oc2ccc(cc2Cl)[C@H]1O [Vancomycin, vancomycin] | – | – | – | – | – | – | – | 4 (≈ 2.76 µM) | 4 (≈ 2.76 µM) | 256 | 256 | – | 256 | > 256 | > 256 | 1 | 256 | –
4 | OCC(O)CO [glycerol] | – | – | – | – | – | – | – | – | – | – | – | – | – | – | – | – | – | ~10
